# Where two headings read alike, the source gives them in different places.
# Legend:
# GSK3A = target: T1, GSK3A (Homo sapiens, UniProt P49840); assay: NanoBRET cellular target engagement assay, Nanoluc-GSK3A in HEK293 cells; type: cell-based; details: NanoBRET GSK3α IC50, HEK293 cells, tracer K-8, 2 hours, 37° C
# T1 construct: expressed in transfected cells
# GSK3B [1] = target: T2, GSK3B (Homo sapiens, UniProt P49841); assay: NanoBRET cellular target engagement assay, Nanoluc-GSK3B in HEK293 cells; type: cell-based; design: expressed in transfected cells; details: NanoBRET GSK3β IC50, HEK293 cells, tracer K-8, 2 hours, 37° C
# human GSK3α = target: T3, human GSK3α (Homo sapiens, UniProt P49840); assay: In vitro enzymatic activity assay, GSK3α; type: biochemical; details: 1.0 mM ATP, 1.0 μM peptide substrate, 120 min, 25° C
# T3 construct: Full length human GSK3α or GSK3B expressed as N-terminal GST fusion proteins; GST (N); purchased Carna Biosciences (Japan); host or cells: baculovirus host
# GSK3B [2] = target: T2, GSK3B; assay: In vitro enzymatic activity assay, GSK3β; type: biochemical; design: Full length human GSK3α or GSK3B expressed as N-terminal GST fusion proteins; GST (N); purchased Carna Biosciences (Japan); host or cells: baculovirus host; details: 1.0 mM ATP, 1.0 μM peptide substrate, 120 min, 25° C
# T1 sequence (P49840 whole entry): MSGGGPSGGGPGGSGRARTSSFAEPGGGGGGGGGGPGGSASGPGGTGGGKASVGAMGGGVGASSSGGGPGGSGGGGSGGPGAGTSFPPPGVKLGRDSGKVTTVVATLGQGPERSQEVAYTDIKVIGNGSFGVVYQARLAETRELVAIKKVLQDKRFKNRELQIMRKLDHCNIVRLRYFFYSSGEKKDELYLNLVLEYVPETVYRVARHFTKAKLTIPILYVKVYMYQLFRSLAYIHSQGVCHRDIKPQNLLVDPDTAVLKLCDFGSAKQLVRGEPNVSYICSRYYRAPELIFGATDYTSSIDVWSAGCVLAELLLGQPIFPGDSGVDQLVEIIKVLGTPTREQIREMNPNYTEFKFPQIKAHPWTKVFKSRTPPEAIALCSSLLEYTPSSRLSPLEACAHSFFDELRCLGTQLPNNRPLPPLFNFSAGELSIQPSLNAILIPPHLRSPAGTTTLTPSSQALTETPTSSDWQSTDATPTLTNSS
# T3 sequence (P49840 whole entry, the tested form may be a part): as the sequence (P49840 whole entry) above
# T2 sequence (P49841 whole entry): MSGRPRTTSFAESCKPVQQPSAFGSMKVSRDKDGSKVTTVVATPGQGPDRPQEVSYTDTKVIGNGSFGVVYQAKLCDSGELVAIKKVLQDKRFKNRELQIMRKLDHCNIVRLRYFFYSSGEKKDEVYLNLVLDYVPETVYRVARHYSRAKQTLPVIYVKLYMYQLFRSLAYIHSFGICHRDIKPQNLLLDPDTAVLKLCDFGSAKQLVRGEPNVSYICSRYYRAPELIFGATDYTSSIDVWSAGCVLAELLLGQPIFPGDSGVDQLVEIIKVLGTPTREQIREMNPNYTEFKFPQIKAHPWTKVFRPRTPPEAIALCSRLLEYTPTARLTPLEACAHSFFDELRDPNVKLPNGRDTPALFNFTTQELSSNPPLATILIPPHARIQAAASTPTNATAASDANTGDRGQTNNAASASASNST
SMILES,IC50 (GSK3A),IC50 (GSK3B [1]),IC50 (human GSK3α; read-out: Enzyme GSK3α (IC50)),IC50 (GSK3B [2]; read-out: Enzyme GSK3β (IC50)),IC50 (human GSK3α; Enzyme GSK3α (IC50)),IC50 (GSK3B [2]; Enzyme GSK3β (IC50))
"Cc1cc([C@@H](C)F)cc(C)c1-n1cnc(N)c(C(=O)Nc2cncc([C@H]3CCCCN3)c2)c1=O (single isomer, unassigned) [Example 185, 4-amino-1-(4-((R)-1-fluoroethyl)-2,6-dimethylphenyl)-6-oxo-N-(5-((R)-piperidin-2-yl)pyridin-3-yl)-1,6-dihydropyrimidine-5-carboxamide or 4-amino-1-(4-((S)-1-fluoroethyl)-2,6-dimethylphenyl)-6-oxo-N-(5-((R)-piperidin-2-yl)pyridin-3-yl)-1,6-dihydropyrimidine-5-carboxamide]",1.6 nM,128 nM,3.5 nM,148 nM,,
"C#CCC(N)c1cncc(NC(=O)c2c(N)ncn(-c3c(Cl)cc(OCC)cc3Cl)c2=O)c1 (single isomer, unassigned) [Example 151, (R)-4-amino-N-(5-(1-aminobut-3-yn-1-yl)pyridin-3-yl)-1-(2,6-dichloro-4-ethoxyphenyl)-6-oxo-1,6-dihydropyrimidine-5-carboxamide or (S)-4-amino-N-(5-(1-aminobut-3-yn-1-yl)pyridin-3-yl)-1-(2,6-dichloro-4-ethoxyphenyl)-6-oxo-1,6-dihydropyrimidine-5-carboxamide]",7.1 nM,406 nM,14.9 nM,501 nM,,
"Cc1cc(CC(=O)O)cc(C)c1-n1cnc(N)c(C(=O)Nc2cncc([C@H]3CCCCN3)c2)c1=O [Example 207, (R)-2-(4-(4-amino-6-oxo-5-((5-(piperidin-2-yl)pyridin-3-yl)carbamoyl)pyrimidin-1 (6H)-yl)-3,5-dimethylphenyl) acetic acid]",966 nM,25000 nM,,,5.3 nM,234 nM
"Cc1cc(Cl)c(-n2cnc(N)c(C(=O)Nc3cncc([C@@H]4CCCN4)c3)c2=O)c(Cl)c1 [Example 45, (S)-4-amino-1-(2,6-dichloro-4-methylphenyl)-6-oxo-N-(5-(pyrrolidin-2-yl)pyridin-3-yl)-1,6-dihydropyrimidine-5-carboxamide]",6.6 nM,365 nM,8.5 nM,384 nM,,
"Nc1ncn(-c2c(Cl)cc(OC(F)F)cc2Cl)c(=O)c1C(=O)Nc1cncc([C@@H]2CCCCN2)c1 [Example 46, (S)-4-amino-1-(2,6-dichloro-4-(difluoromethoxy)phenyl)-6-oxo-N-(5-(piperidin-2-yl)pyridin-3-yl)-1,6-dihydropyrimidine-5-carboxamide]",7.3 nM,395 nM,10.5 nM,489 nM,,
"CCOCc1cc(C)c(-n2cnc(N)c(C(=O)Nc3cncc(C(C)N)c3)c2=O)c(C)c1 (single isomer, unassigned) [Example 130, (R)-4-amino-N-(5-(1-aminoethyl)pyridin-3-yl)-1-(4-(ethoxymethyl)-2,6-dimethylphenyl)-6-oxo-1,6-dihydropyrimidine-5-carboxamide or (S)-4-amino-N-(5-(1-aminoethyl)pyridin-3-yl)-1-(4-(ethoxymethyl)-2,6-dimethylphenyl)-6-oxo-1,6-dihydropyrimidine-5-carboxamide]",5.3 nM,461 nM,13.5 nM,591 nM,,
"CCNCc1cncc(NC(=O)c2c(N)ncn(-c3c(Cl)cccc3Cl)c2=O)c1 [Example 5, 4-amino-1-(2,6-dichlorophenyl)-N-(5-((ethylamino)methyl)pyridin-3-yl)-6-oxo-1,6-dihydropyrimidine-5-carboxamide]",6.2 nM,383 nM,8.3 nM,378 nM,,
"CCOc1cc(Cl)c(-n2cnc(N)c(C(=O)Nc3cncc(C(N)CC)c3)c2=O)c(Cl)c1 (single isomer, unassigned) [Example 136, (R)-4-amino-N-(5-(1-aminopropyl)pyridin-3-yl)-1-(2,6-dichloro-4-ethoxyphenyl)-6-oxo-1,6-dihydropyrimidine-5-carboxamide or (S)-4-amino-N-(5-(1-aminopropyl)pyridin-3-yl)-1-(2,6-dichloro-4-ethoxyphenyl)-6-oxo-1,6-dihydropyrimidine-5-carboxamide]",1.8 nM,118 nM,2.9 nM,206 nM,,
"Nc1ncn(-c2c(Cl)cccc2Cl)c(=O)c1C(=O)Nc1cccc([C@@H]2CNC(=O)CN2)c1 (single isomer, unassigned) [Example 190, (R)-4-amino-1-(2,6-dichlorophenyl)-6-oxo-N-(3-(5-oxopiperazin-2-yl)phenyl)-1,6-dihydropyrimidine-5-carboxamide or (S)-4-amino-1-(2,6-dichlorophenyl)-6-oxo-N-(3-(5-oxopiperazin-2-yl)phenyl)-1,6-dihydropyrimidine-5-carboxamide]",26.7 nM,3300 nM,37.6 nM,971 nM,,
"NCc1cncc(NC(=O)c2c(N)ncn(-c3c(Cl)cc(C(F)(F)F)cc3Cl)c2=O)c1 [Example 120, 4-amino-N-(5-(aminomethyl)pyridin-3-yl)-1-(2,6-dichloro-4-(trifluoromethyl)phenyl)-6-oxo-1,6-dihydropyrimidine-5-carboxamide]",4.4 nM,274 nM,9.4 nM,442 nM,,
"CCOc1cc(Cl)c(-n2cnc(N)c(C(=O)Nc3cncc(CNCCS(C)(=O)=O)c3)c2=O)c(Cl)c1 [Example 165, 4-amino-1-(2,6-dichloro-4-ethoxyphenyl)-N-(5-(((2-(methylsulfonyl)ethyl)amino)methyl)pyridin-3-yl)-6-oxo-1,6-dihydropyrimidine-5-carboxamide]",9.3 nM,1120 nM,10.8 nM,434 nM,,
"CNC(COC)c1cncc(NC(=O)c2c(N)ncn(-c3c(Cl)cc(C(F)(F)F)cc3Cl)c2=O)c1 (single isomer, unassigned) [Example 122, (R)-4-amino-1-(2,6-dichloro-4-(trifluoromethyl)phenyl)-N-(5-(2-methoxy-1-(methylamino)ethyl)pyridin-3-yl)-6-oxo-1,6-dihydropyrimidine-5-carboxamide or (S)-4-amino-1-(2,6-dichloro-4-(trifluoromethyl)phenyl)-N-(5-(2-methoxy-1-(methylamino)ethyl)pyridin-3-yl)-6-oxo-1,6-dihydropyrimidine-5-carboxamide]",5 nM,314 nM,5.3 nM,327 nM,,
"Cc1cc(C)c(-n2cnc(N)c(C(=O)Nc3cncc(C4CCCCCN4)c3)c2=O)c(C)c1 (single isomer, unassigned) [Example 146, (R)-4-amino-N-(5-(azepan-2-yl)pyridin-3-yl)-1-mesityl-6-oxo-1,6-dihydropyrimidine-5-carboxamide or (S)-4-amino-N-(5-(azepan-2-yl)pyridin-3-yl)-1-mesityl-6-oxo-1,6-dihydropyrimidine-5-carboxamide]",3.7 nM,340 nM,7.7 nM,355 nM,,
"Nc1ncn(-c2c(Cl)cc(C(F)F)cc2Cl)c(=O)c1C(=O)Nc1cncc([C@@H]2CCCN2)c1 [Example 55, (S)-4-amino-1-(2,6-dichloro-4-(difluoromethyl)phenyl)-6-oxo-N-(5-(pyrrolidin-2-yl)pyridin-3-yl)-1,6-dihydropyrimidine-5-carboxamide]",6.5 nM,483 nM,9.1 nM,430 nM,,

# — patent US20260327191A1, “GSK3a INHIBITORS AND METHODS OF USE THEREOF” (Blueprint Medicines Corporation, priority 2023, published 2026)
